The term IC50 denotes the concentration at which inhibition is half-maximal.

Chain of Dual specificity mitogen-activated protein kinase kinase 1 (Q02750 whole entry): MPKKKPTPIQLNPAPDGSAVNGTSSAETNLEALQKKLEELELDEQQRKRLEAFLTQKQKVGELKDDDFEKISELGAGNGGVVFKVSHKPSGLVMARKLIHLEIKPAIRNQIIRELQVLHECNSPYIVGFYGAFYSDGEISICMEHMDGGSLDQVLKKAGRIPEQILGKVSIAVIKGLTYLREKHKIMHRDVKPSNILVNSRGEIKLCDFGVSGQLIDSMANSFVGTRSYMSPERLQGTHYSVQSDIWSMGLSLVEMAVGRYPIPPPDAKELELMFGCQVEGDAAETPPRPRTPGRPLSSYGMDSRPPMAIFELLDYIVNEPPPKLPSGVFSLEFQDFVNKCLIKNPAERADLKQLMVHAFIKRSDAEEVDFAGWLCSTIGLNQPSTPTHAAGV
Chain of Serine/threonine-protein kinase pim-2 (Q9P1W9 whole entry): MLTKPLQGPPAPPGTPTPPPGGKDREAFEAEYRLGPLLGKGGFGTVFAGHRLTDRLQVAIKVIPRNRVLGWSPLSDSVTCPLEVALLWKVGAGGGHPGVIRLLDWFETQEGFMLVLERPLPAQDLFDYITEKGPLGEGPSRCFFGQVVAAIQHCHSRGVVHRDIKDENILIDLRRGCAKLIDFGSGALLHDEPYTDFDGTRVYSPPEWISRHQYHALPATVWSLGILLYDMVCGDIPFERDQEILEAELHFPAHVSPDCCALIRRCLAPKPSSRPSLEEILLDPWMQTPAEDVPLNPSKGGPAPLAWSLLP

One test concerns the target Serine/threonine-protein kinase pim-2 (Homo sapiens, UniProt Q9P1W9). Briefly: Inhibition of Pim2 kinase.
On to `N#Cc1c(-c2ccccc2)cc(-c2cc(Br)ccc2O)[nH]c1=O`, for which the IC50 was over 20 µM.

In a further test the target is Dual specificity mitogen-activated protein kinase kinase 2 (Homo sapiens, UniProt P36507). The test can be described thus: Inhibition of MEK2 kinase.
Chain of Dual specificity mitogen-activated protein kinase kinase 2 (P36507 whole entry): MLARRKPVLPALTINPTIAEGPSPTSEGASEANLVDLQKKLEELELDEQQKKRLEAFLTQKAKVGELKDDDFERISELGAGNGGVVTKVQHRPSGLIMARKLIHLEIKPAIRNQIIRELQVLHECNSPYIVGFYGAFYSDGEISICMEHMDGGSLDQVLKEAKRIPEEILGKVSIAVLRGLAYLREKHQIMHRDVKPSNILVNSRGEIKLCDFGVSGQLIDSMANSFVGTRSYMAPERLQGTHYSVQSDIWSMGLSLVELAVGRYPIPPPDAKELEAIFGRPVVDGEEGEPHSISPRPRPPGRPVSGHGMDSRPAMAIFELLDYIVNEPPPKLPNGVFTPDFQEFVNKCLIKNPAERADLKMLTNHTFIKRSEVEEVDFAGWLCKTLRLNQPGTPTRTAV
`N#Cc1c(-c2ccccc2)cc(-c2cc(Br)ccc2O)[nH]c1=O` yielded an IC50 of over 20 µM.

Another test deals with Serine/threonine-protein kinase pim-1 (Homo sapiens, UniProt P11309). Briefly: Inhibition of Pim1 kinase.
Chain of Serine/threonine-protein kinase pim-1 (P11309 whole entry): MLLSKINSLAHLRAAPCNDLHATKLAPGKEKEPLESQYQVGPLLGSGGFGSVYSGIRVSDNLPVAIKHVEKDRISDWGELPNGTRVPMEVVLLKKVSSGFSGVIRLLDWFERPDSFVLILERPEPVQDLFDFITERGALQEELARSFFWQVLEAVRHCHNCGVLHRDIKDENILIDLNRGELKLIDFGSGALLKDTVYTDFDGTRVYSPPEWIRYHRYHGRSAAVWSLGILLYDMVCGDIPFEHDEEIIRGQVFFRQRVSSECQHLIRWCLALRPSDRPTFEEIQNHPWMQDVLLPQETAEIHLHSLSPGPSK
In turn, `Cc1ccc(O)c(-c2cc(-c3ccccc3)c(C#N)c(=O)[nH]2)c1` registered an IC50 of 0.34 µM. On the same count and under the same terms, for `Cc1ccc(O)c(-c2cc(-c3ccccc3)[nH]c(=O)c2C#N)c1` the value was 0.37 µM; for `N#Cc1c(-c2ccccc2)cc(-c2ccc(O)cc2)nc1N`, 4.41 µM; for `N#Cc1c(-c2ccc(Cl)cc2)c2c([nH]c1=O)-c1ccccc1OC2`, 0.92 µM. The same measure, in the same setting: the value for `N#Cc1c(-c2ccccc2Cl)c2c([nH]c1=O)-c1ccccc1OC2` was 1.23 µM; that for `CCc1ccc(O)c(-c2cc(-c3cccc(Cl)c3)c(C#N)c(=O)[nH]2)c1` was 1.03 µM. `COc1ccc(-c2cc(C(F)(F)F)c(C#N)c(=O)[nH]2)cc1Br` came in with an IC50 of 1.14 µM. On the same count and under the same terms, for `N#Cc1c(-c2ccncc2)c2c([nH]c1=O)-c1ccccc1CC2` the value was over 20 µM; for `N#Cc1c(-c2ccccn2)c2c([nH]c1=O)-c1ccccc1OC2`, over 20 µM. Same read-out and setting: for `N#Cc1c(-c2cccnc2)c2c([nH]c1=O)-c1ccccc1SC2` the value was 4.79 µM. Take `N#Cc1c(-c2ccccc2Cl)c2c([nH]c1=O)-c1ccccc1SC2`: half-maximal inhibition (IC50) required 20 µM.

`CCOC(=O)C1=C2C(=O)Oc3ccccc3C2N(C)C(=O)C1` (stereo not given) yielded an IC50 of over 20 µM. In the case of `N#Cc1c(-c2ccc(F)cc2)c2c([nH]c1=O)-c1ccccc1SC2`, the IC50 is over 20 µM.

`N#Cc1c(-c2ccc(O)cc2)cc(-c2ccccc2O)[nH]c1=O` yielded an IC50 of 0.43 µM. On the same count and under the same terms, the value for `COc1ccc(-c2c3c([nH]c(=O)c2C#N)-c2ccccc2OC3)cc1` was over 20 µM. Same read-out and setting: the value for `Nc1n[nH]c2nc(-c3cc(Br)ccc3O)cc(-c3ccccc3)c12` was 1.77 µM; that for `N#Cc1c(-c2ccncc2)c2c([nH]c1=O)-c1ccccc1OC2` was 20 µM.

A further test addresses Dual specificity mitogen-activated protein kinase kinase 1 (Homo sapiens, UniProt Q02750). The test can be described thus: Inhibition of MEK1 kinase.
On to `N#Cc1c(-c2ccccc2)cc(-c2cc(Br)ccc2O)[nH]c1=O`, for which the IC50 is over 20 µM.

Source of the values: ChEMBL document CHEMBL1139114, “Identification and structure-activity relationships of substituted pyridones as inhibitors of Pim-1 kinase” (Bioorg Med Chem Lett, 2007).
